Assay results: PMC3895372 (Nature communications, 2014)
pKi: −log10 of the molar value.

Experiments:
µ-calpain = molecular target: T1, µ-calpain (Sus scrofa, UniProt P35750); assay: fluorogenic Suc-Leu-Tyr-AMC hydrolysis assay with purified enzyme; format: biochemical
T1 sequence (P35750 1-714): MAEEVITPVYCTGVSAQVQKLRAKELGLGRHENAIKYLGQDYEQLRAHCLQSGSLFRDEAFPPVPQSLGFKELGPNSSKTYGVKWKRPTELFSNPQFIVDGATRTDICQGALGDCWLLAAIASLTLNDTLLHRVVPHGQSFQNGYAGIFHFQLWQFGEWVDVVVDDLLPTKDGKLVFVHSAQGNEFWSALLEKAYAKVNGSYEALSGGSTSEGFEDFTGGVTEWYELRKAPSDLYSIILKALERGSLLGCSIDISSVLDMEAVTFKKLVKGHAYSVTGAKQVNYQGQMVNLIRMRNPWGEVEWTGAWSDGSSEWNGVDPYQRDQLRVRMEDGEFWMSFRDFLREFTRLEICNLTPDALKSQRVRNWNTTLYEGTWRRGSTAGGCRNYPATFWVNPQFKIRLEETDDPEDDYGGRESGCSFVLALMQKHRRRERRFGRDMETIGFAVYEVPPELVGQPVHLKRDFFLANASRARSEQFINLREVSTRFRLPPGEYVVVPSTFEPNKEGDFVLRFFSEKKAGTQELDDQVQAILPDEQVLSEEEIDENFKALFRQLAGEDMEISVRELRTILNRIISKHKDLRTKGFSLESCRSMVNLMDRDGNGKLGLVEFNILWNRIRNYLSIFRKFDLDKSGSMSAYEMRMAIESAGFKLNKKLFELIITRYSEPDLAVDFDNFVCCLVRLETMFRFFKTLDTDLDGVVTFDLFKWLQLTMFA
T1 sequence (P04574 1-266 partner): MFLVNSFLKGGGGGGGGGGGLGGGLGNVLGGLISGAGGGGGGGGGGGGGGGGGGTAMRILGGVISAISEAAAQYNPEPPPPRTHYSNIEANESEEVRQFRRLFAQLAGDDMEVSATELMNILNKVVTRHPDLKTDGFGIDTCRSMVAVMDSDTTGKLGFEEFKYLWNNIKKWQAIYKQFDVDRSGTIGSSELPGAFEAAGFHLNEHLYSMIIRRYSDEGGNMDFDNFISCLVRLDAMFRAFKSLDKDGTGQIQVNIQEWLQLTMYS

m-calpain = molecular target: T2, m-calpain (Rattus norvegicus, UniProt Q07009); assay: as above; format: biochemical
T2 sequence (Q07009 20-700): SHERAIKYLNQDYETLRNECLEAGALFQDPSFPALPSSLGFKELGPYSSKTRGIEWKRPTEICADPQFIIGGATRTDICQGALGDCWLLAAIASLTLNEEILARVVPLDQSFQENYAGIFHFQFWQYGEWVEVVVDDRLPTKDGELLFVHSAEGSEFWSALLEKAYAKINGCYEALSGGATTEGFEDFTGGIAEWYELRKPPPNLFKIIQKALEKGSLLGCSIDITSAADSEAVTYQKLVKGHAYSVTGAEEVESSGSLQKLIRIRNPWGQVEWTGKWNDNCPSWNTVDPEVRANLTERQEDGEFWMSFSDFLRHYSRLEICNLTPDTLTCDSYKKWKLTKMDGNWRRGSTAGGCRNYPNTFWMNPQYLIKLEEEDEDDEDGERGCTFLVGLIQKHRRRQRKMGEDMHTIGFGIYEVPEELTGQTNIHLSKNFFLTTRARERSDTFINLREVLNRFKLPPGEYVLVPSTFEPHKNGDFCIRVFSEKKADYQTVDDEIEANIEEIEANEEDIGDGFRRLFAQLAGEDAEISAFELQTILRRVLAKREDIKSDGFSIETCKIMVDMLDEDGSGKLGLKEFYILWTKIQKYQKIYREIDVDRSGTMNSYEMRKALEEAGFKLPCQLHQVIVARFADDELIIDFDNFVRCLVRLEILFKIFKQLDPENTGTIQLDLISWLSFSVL
T2 sequence (Q64537 1-270 partner): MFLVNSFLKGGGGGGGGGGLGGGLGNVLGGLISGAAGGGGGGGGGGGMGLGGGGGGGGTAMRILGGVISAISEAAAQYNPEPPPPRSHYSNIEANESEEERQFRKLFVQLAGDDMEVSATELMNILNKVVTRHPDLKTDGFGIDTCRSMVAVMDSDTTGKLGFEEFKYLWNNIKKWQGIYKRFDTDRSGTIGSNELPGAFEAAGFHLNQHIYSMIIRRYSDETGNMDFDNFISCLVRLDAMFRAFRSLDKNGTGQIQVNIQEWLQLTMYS

pKi (µ-calpain): 6.03
pKi (m-calpain): 7.60
SMILES: CC[C@H](NC(=O)[C@H](CC(C)C)NC(=O)OCc1ccccc1)C(=O)C(=O)NCc1cc(OC)cc(OC)c1 [mCalp-I]
